≈ marks a conversion by molar mass, not a printed value. Read-outs that look alike come from different tables or passages of the source.
Experiments:
[1] = parameters: method as in PMID 31244223; conditions: pooled human liver microsomes; previously reported ref 14; cited from earlier work
[2] = parameters: method as in PMID 31244223; conditions: previously reported ref 14; cited from earlier work
MRSA [3] = assay: Mouse skin infection with MRSA; format: in vivo, BABL/c mice; conditions: for load of S. aureus on treated skin: n = 5/group; for healing of the infected skin: topical twice a day for 7 days, observation and H&E staining
Experimental: Mouse MRSA skin infection study was performed as described before. Female BABL/c mice (20–22 g, 7-weeks old) were anesthetized by intraperitoneal injection of 4% chloral hydrate (200 μL), and the hair of mice back surface was removed and washed with povidone iodine–propanol solution. A gauze (15 × 15 mm) was preheated in boiling water (90 °C) for 10 min, and then placed on the back of each mouse for 40 s to generate the burns. Next, the burn was bound with sterile gauze and infected with 1 × 10^8 colony-forming units (CFU) of MRSA. An open wound was witnessed at the burns after 48 h post infection. The infected mice were then divided into three groups (5 per group). A4 (200 μg) was formulated into 2% ointment consisting of 1.4% carbomer, 1.4% triethanolamine, 14% propanediol, 14% glycerinum, and 1% azone. Mupirocin (2% w/w) were used as the positive control, while vehicle used as negative control. All mice were treated twice a day for 7 days. Mice were euthanized after 24 h of the last treatment, and the wound area was slightly swabbed with 70% ethanol. Wound area (1 cm^2) was excised, homogenized, and plated onto TSB agar plates to count viable bacteria. Other skin biopsy specimens removed from the wounds were stored at 4% paraformaldehyde solution to be used for hematoxylin and eosin (HE) staining.

[4] = Metabolic stability assay in pooled human liver microsomes; format: in vitro ADME; conditions: pH 7.4, 37 °C, NADPH, read-out: Half-Life in Human Hepatic Microsomes
Experimental: Each compound was incubated in duplicate with pooled human liver microsomes at 37 °C. The tested compounds were pre-incubated with pooled human liver microsomes in phosphate buffer (pH 7.4) for 5 min in a shaking water bath at 37 °C. The reaction was initiated by adding a NADPH-generating system and incubated for 0, 15, 30, 45, and 60 min. The reaction was stopped by transferring the incubation mixture to CH3CN/MeOH. Samples were then mixed and centrifuged. Supernatants were used for HPLC–MS/MS analysis. Data were calculated as percent parent compounds remaining by assuming zero-minute time point peak area ratio (analyte/IS) as 100% and dividing remaining time point peak area ratios by the zero-minute time point peak area ratio. Data were subjected to fit a first-order decay model to calculate both the slope and half-life.

MSSA 1 = assay: MIC determination (LB agar dilution), clinical MSSA strain 1; format: cell-based; conditions: Staphylococcus aureus, at least two replicates
Experimental: (§1) All of the tested compounds were prepared to different concentrations with methanol, and 150 μL of the respective methanol solution was used to mix with 15 mL LB (Luria–Bertani) medium with 1% agar in each Petri dish. Linezolid and PTM were used as reference compounds for comparison. In vitro bioassay for compounds was carried out using clinical strains of S. aureus, E. coli, and Klebsilla pneumoniae. The bacteria were cultivated in LB medium and incubated for 16 h at 37 °C, 250 rpm. The resulting bacteria were diluted to approximate 0.25 at OD600, which were further diluted 10_4-fold. The diluted bacteria (2 μL) were added to Petri dish containing the respective compounds. The resulting Petri dishes were incubated for 16 h at 37 °C. The determination of MIC is the concentration of Petri dishes with no visible growth of bacteria.

MRSA 3 = assay: MIC determination (LB agar dilution), clinical MRSA strain 3; format: cell-based; conditions: Staphylococcus aureus, at least two replicates
Experimental: as §1

[5] = Plasma protein binding by equilibrium dialysis; format: in vitro ADME; conditions: 37 °C; for Plasma Protein Binding Bound %: 5 μM, 6 h; for fraction unbound at 6 h, 5 μM: plasma, read-out: Plasma Protein Binding Free %
Experimental: Equilibrium dialysis was used to determine the plasma protein binding. All of the test compounds were treated in triplicate by RED Rapid Equilibrium Dialysis Device (Thermo Scientific, Waltham, MA, USA). In brief, the initial compound concentration (5 μM) in the plasma chamber was first set, followed by the addition of phosphate buffered saline (PBS) to the receiver chamber. The Equilibrium Dialysis Device was allowed to shake for 6 h in a 37 °C incubator. Then, 25 μL solution was sampled from the plasma and PBS chambers, respectively, and they were diluted with either blank PBS or plasma to achieve a 1:1 ratio of plasma: PBS for all samples. The concentrations of the tested compounds in the plasma and PBS chambers were determined by LC–MS/MS. The fraction bound was calculated as ([plasma]—[PBS])/[plasma].

S. aureus ATCC 29213 = assay: MIC determination (LB agar dilution), S. aureus ATCC 29213; format: cell-based; conditions: Staphylococcus aureus, ATCC29213, at least two replicates
Experimental: as §1

MRSA [6] = format: in vivo; conditions: for mice died within 24 h / survival of infected mice: n = 5; for survival of infected mice: tracked 7 days; for survival rate of the infected mice: 7 days
MRSA 4 = assay: MIC determination (LB agar dilution), clinical MRSA strain 4; format: cell-based; conditions: Staphylococcus aureus, at least two replicates
Experimental: as §1

MSSA 2 = assay: MIC determination (LB agar dilution), clinical MSSA strain 2; format: cell-based; conditions: Staphylococcus aureus, at least two replicates
Experimental: as §1

[7] = Stability of A4 in LB agar; format: physicochemical; conditions: 8 μg mL−1 in LB agar, 37 °C, 16 h, UPLC
Experimental: Figure S44. Analysis of the stability of A4 from LB agar. Compound A4 (0.1 mg mL−1)
were diluted in 5 mL of LB agar (1.5% v/v) to 8 μg mL−1, and the LB agar plates were
then incubated at 37 °C for 16 h. The LB agar containing A4 was extracted by DCM (3 ×
10 mL), dried with anhydrous Na2SO4 and concentrated in vacuum. The resulting
extracts were analysed by Ultra-Performance Liquid Chromatography.
(1 picture or pasted object on this page, not shown here)

[8] = 2 mg topical twice a day for 7 days
[9] = 10 mg/kg intraperitoneal at 1 h and 5 h after infection

Row | Structure (SMILES) | half-life [4] [min] | MIC (MSSA 1) [µg/mL] | MIC (MRSA 3) [µg/mL] | Plasma Protein Binding Bound % [5] [%] | fraction unbound at 6 h, 5 μM [5] | MIC (S. aureus ATCC 29213) [µg/mL] | MIC (MRSA 4) [µg/mL] | MIC (MSSA 2) [µg/mL] | other results
1 | CCSC1CC(=O)C(C)(CCC(=O)Nc2c(O)ccc(C(=O)O)c2O)C2C3CC4CC12CC4(C)O3 (centres unmarked) [1a, PTM-2t] |  |  |  |  |  |  |  |  | Half-Life in Human Hepatic Microsomes [1]: 22 min; Plasma Protein Binding Bound % [2]: 35%; Plasma Protein Binding Free % [2]: 65%
2 | C/C(=C\C(=O)OCCCCCCCCC(=O)O)C[C@@H]1OC[C@H](C[C@@H]2O[C@H]2[C@@H](C)[C@H](C)O)[C@@H](O)[C@H]1O [mupirocin, reference compound] |  |  |  |  |  |  |  |  | load of S. aureus on treated skin (MRSA [3]; [8]): (6.5 ± 2.4) × 10^5 CFU/g; healing of the infected skin (MRSA [3]): showed the healing of the skin
3 | CC12CC34C=C(C#Cc5cccc(F)c5)C(=O)C(C)(CCC(=O)Nc5c(O)ccc(C(=O)O)c5O)C3C(CC1C4)O2 (centres unmarked) [B8] | 96 | 1 (≈ 1.79 µM) | 1 (≈ 1.79 µM) | 99.4 | 0.006 | 1 (≈ 1.79 µM) | 1 (≈ 1.79 µM) | 1 (≈ 1.79 µM) | mice died within 24 h (MRSA [6]; [9]): 40%
4 | CC12CC34C=C(I)C(=O)C(C)(CCC(=O)Nc5c(O)ccc(C(=O)O)c5O)C3C(CC1C4)O2 (centres unmarked) [compound 4, 6-iodo PTM] | 58 | 1 (≈ 1.76 µM) | 1 (≈ 1.76 µM) | 87 | 0.13 | 1 (≈ 1.76 µM) | 1 (≈ 1.76 µM) | 1 (≈ 1.76 µM) | mice died within 24 h (MRSA [6]; [9]): 40%
5 | CC12C[C@@]34C=CC(=O)[C@@](C)(CCC(=O)Nc5c(O)ccc(C(=O)O)c5O)C3[C@H](CC1C4)O2 (some centres unmarked) [PTM, Platensimycin] |  | 1 (≈ 2.27 µM) | 1 (≈ 2.27 µM) |  |  | 1 (≈ 2.27 µM) | 1 (≈ 2.27 µM) | 1 (≈ 2.27 µM) | Half-Life in Human Hepatic Microsomes [1]: 51 min; survival of infected mice (MRSA [6]; [9]): died after MRSA infection within 24 h; Plasma Protein Binding Free % [2]: 34%
6 | CC(C)(C)OC(=O)C=CC1=CC23CC4CC(OC4(C)C2)C3C(C)(CCC(=O)Nc2c(O)ccc(C(=O)O)c2O)C1=O (centres unmarked) [A4] | 26 | 1 (≈ 1.76 µM) | 1 (≈ 1.76 µM) | 98.3 | 0.017 | 1 (≈ 1.76 µM) | 1 (≈ 1.76 µM) | 1 (≈ 1.76 µM) | stability in LB agar [7]: relatively stable; survival rate of the infected mice (MRSA [6]; 5 mg/kg intraperitoneal at 1 h and 5 h after infection): 60%; survival of infected mice (MRSA [6]; [9]): 60%; survival rate of the infected mice (MRSA [6]; 20 mg/kg intraperitoneal at 1 h and 5 h after infection): 80%; survival rate of the infected mice (MRSA [6]; 30 mg/kg intraperitoneal at 1 h and 5 h after infection): 60%; survival of infected mice (MRSA [6]; 50 mg/kg intraperitoneal at 1 h and 5 h after infection): 20%; survival of infected mice after oral administration (MRSA [6]; 30 and 50 mg/kg by oral gavage): most of the treated mice survived within 48 h; reduction of MRSA on the skin compared to untreated mice (MRSA [3]; [8]): ~ 790 fold; load of S. aureus on treated skin (MRSA [3]; [8]): (1.0 ± 0.3) × 10^6 CFU/g; healing of the infected skin (MRSA [3]): showed the healing of the skin
7 | CCCCCCCCCCCCCCCCCCOC(=O)C=CC1=CC23CC4CC(OC4(C)C2)C3C(C)(CCC(=O)Nc2c(O)ccc(C(=O)O)c2O)C1=O (centres unmarked) [A5] | 76 | > 64 | > 64 | 99.2 | 0.008 | > 64 | > 64 | > 64 | 
8 | CC(=O)C1=C(C)OC(Cc2ccc(F)cc2)=C2C(=O)C(C)(CCC(=O)Nc3c(O)ccc(C(=O)O)c3O)C3C4CC5CC3(CC5(C)O4)C12 (centres unmarked) [C6] | 17 | 32 (≈ 48.5 µM) | 32 (≈ 48.5 µM) | 99.6 | 0.004 | 32 (≈ 48.5 µM) | 32 (≈ 48.5 µM) | 32 (≈ 48.5 µM) | 

From paper PMC9027111, “Morphing Natural Product Platensimycin via Heck, Sonogashira, and One-Pot Sonogashira/Cycloaddition Reactions to Produce Antibiotics with In Vivo Activity” (Antibiotics, 2022)
